Source: ChEMBL document CHEMBL1201862, “PubChem BioAssay data set” (2004)
Activity calls are given as the source filed them.

Experiments:
[1] = target: Heat shock protein HSP 90-alpha (Homo sapiens, UniProt P07900); assay type: functional, organism-based
[2] = target: Hepatocyte nuclear factor 4-alpha (Homo sapiens, UniProt P41235); assay type: functional, cell-based;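 also: biochemical luminescence-based dose-response counterscreen measuring inhibition of HNF4 dimerization, run alongside a screen for blockers of ABHD5–perilipin-5 interaction; split luciferase complementation of HNF4 fusion proteins in cell lysate measuring dimerization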
[3] = nonselective StAR promoter luciferase inhibitors – cell-based, luminescence, luciferase reporter, counter-screen for LRH-1 inverse agonist project, dose response (AID 651969); assay type: functional
[4] = target: Nuclear receptor subfamily 5 group A member 2 (Homo sapiens, UniProt O00482); assay type: functional, cell-based;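 also: HEK293T cells transfected with LRH-1 and a StAR promoter luciferase reporter; potency for inhibitors that lower LRH-1 driven reporter light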
Steroidogenic factor 1 = Steroidogenic factor 1 (Homo sapiens, UniProt Q13285); assay: Counterscreen for inverse agonists of the liver receptor homolog-1 (LRH-1; NR5A2): Luminescence-based cell-based high throughput dose response assay to identify inverse agonists of the Steroidogenic Factor 1 Nuclear Receptor (SF1; NR5A1).; assay type: functional
[5] = target: T1, Sentrin-specific protease 1 (Homo sapiens, UniProt Q9P0U3); assay: Dose response confirmation of small molecule inhibitors of the catalytic domain of the SUMO protease, SENP1 in a FRET assay.; assay type: functional; conditions: read-out: IC50_Mean
[6] = target: T1, Sentrin-specific protease 1; assay: SENP1 catalytic domain blockers, concentration series – biochemical, kinetic FRET, dose response (AID 651697); assay type: functional; conditions: read-out: IC50_Mean
[7] = Fluorescence-based cell-based high throughput dose response assay for inhibitors of the interaction of nucleotide-binding oligomerization domain containing 2 (NOD2) and the receptor-interacting serine-threonine kinase 2 (RIPK2).; assay type: functional; conditions: Homo sapiens
[8] = target: T2, Mitochondrial peptide methionine sulfoxide reductase (Bos taurus, UniProt P54149); assay type: functional;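 also: absorbance read-out, biochemical high-throughput dose-response screen for MsrA inhibitors, confirmatory; recombinant bovine MsrA coupled to E. coli TrxB with NADPH and selenocystamine; potency is for inhibitors of MsrA activity on DMSO substrate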
T2 sequence (P54149 whole entry): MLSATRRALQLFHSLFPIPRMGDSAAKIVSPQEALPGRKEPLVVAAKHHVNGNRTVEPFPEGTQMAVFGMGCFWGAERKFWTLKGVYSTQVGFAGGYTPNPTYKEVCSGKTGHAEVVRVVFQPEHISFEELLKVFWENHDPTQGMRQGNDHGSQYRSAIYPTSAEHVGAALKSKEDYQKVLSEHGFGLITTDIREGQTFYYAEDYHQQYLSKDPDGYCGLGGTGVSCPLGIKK

[9] = target: Palmitoyl-protein thioesterase ABHD10, mitochondrial (Mus musculus, UniProt Q6PE15); assay: Late stage assay provider results from the probe development effort to identify inhibitors of PME-1: fluorescence-based dose response biochemical gel-based competitive Activity-Based Protein Profiling (ABPP) inhibition of ABHD10 Set 2.; assay type: functional
[10] = bead-based luminescence quenchers, dual-tagged ARNT – biochemical, AlphaScreen, cherry-pick, artefact control for ARNT-TACC3 interaction inhibitor project, dose response (AID 651705); assay type: functional;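 also: AlphaScreen bead proximity signal that flags compounds interfering with the detection technology; potency reflects signal decrease which marks the compound as an assay artifact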
Protein RecA = target: T3, Protein RecA (Mycobacterium tuberculosis, UniProt P9WHJ3); assay: Fluorescence Cell-Free Homogeneous Dose Retest to Identify Inhibitors of RecA-Intein Splicing Activity. [Related pubchem assays (depositor defined):AID2097, AID2223, AID489010, AID492950]; assay type: functional
T3 sequence (P9WHJ3 whole entry): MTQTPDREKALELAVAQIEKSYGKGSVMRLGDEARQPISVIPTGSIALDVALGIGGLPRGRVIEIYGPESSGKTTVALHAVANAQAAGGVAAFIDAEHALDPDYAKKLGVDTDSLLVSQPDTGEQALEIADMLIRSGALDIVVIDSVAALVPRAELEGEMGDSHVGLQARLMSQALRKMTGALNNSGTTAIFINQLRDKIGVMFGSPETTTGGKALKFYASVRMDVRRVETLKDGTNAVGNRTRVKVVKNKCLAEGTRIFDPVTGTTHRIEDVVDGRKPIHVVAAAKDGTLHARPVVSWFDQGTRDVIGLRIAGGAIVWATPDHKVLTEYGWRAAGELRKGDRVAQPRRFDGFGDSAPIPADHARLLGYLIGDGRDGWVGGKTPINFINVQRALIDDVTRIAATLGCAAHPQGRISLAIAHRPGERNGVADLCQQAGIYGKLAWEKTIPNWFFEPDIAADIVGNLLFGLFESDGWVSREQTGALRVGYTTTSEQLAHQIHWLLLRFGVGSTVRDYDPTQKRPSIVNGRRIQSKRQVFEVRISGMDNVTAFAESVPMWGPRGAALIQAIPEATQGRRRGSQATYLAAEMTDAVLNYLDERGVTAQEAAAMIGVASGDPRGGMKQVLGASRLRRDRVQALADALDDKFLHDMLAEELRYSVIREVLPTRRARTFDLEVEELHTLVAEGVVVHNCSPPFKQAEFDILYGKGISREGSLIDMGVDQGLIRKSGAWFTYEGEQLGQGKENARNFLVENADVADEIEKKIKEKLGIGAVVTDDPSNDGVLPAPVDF

[11] = test system: Streptococcus sp. 'group A'; assay: Streptococcus pyogenes SK(-)GAS viability under kanamycin – luminescence, BacTiterGlo, confirmation, counter-screen for streptokinase expression inhibitor project, dose response (AID 1900); assay type: functional, organism-based
[12] = target: T4, Apoptotic protease-activating factor 1 (Homo sapiens, UniProt O14727); assay type: functional
T4 sequence (O14727 whole entry): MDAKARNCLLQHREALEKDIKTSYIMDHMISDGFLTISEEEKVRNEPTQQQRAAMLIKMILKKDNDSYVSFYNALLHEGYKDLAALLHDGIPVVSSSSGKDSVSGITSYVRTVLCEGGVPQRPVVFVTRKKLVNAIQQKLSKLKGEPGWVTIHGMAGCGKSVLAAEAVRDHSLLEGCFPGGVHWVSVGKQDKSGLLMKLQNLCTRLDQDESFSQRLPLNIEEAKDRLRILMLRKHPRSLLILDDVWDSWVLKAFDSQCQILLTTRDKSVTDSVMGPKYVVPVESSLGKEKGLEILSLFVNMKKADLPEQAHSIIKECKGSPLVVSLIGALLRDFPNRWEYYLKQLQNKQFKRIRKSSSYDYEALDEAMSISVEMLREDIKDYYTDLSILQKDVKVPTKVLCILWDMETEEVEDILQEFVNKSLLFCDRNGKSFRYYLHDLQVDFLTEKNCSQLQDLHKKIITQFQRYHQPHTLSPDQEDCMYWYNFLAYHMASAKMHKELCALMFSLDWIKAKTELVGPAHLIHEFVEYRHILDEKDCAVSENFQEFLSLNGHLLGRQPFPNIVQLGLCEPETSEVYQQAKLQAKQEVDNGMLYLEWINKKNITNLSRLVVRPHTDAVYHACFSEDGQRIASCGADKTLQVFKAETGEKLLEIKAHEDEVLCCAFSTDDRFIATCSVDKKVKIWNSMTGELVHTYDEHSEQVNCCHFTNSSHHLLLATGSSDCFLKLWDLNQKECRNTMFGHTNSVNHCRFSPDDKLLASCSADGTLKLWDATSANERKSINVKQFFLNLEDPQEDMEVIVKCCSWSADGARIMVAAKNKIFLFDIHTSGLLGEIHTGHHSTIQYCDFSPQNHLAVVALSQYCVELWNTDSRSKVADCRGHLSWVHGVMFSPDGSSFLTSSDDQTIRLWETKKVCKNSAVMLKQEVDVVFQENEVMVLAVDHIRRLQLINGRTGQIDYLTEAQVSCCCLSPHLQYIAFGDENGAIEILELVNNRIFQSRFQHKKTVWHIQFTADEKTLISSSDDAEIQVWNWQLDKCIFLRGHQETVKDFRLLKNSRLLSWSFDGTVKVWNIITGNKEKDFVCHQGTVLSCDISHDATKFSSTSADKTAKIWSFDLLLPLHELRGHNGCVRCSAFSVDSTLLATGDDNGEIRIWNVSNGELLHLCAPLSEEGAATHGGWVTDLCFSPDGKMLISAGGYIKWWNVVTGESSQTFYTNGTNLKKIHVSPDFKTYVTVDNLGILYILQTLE

INS1 = assay: INS-1E survival protection against cytokine death – cell-based, luminescence, retest, dose response (AID 449756); assay type: functional; conditions: Rattus norvegicus;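 also: cell death triggered by IL-1 beta plus TNF-alpha plus IFN-gamma mixture; protective hits raise ATP signal compared with cytokine alone wells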
[13] = target: T5, Replicative DNA helicase DnaB (Mycobacterium tuberculosis, UniProt P9WMR3); assay: DnaB intein splicing inhibitors, dose response, biochemical, cell-free fluorescence (AID 449749); assay type: functional
T5 sequence (P9WMR3 whole entry): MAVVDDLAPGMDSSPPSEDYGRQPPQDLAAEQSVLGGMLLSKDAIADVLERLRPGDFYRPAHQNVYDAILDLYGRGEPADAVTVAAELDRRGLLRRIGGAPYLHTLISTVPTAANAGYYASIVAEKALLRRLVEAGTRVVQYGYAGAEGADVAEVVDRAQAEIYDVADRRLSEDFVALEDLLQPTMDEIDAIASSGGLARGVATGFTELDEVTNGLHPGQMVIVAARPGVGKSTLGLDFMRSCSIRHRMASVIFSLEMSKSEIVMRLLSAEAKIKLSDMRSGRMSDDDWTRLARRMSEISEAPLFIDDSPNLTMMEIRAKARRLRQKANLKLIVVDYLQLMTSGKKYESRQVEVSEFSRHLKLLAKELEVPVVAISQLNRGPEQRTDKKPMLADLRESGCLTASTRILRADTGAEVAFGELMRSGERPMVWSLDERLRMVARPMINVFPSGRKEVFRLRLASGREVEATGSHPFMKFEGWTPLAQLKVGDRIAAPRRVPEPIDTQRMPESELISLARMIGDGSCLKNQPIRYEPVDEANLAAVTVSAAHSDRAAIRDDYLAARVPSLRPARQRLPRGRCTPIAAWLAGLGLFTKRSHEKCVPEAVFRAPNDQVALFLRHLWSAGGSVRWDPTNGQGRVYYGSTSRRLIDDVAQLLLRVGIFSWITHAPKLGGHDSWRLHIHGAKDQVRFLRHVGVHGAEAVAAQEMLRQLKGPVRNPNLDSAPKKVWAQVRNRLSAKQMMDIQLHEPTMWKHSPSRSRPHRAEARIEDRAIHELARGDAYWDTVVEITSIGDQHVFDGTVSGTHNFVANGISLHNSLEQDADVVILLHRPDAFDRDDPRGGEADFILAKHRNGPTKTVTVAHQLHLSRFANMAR

Streptococcus = assay: GAS UMAA2166 growth inhibition – luminescence, BacTiterGlo, counter-screen for streptokinase expression inhibitor project, dose response (AID 1915); assay type: functional, organism-based;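 also: potency for reduction of bacterial viability or growth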
[14] = Trypanosoma cruzi growth suppression in host cells – NIH3T3 host cells, beta-gal luminescence, confirmation (AID 2044); assay type: functional, cell-based;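 also: intracellular parasites grown in NIH/3T3 mouse fibroblasts as host cells; luminescent beta-galactosidase reporter signal from transgenic T. cruzi replicating inside host cells; inhibitors lower the luminescence signal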
[15] = target: T6, DNA repair protein RAD52 homolog (Homo sapiens, UniProt P43351); assay type: functional, biochemical
T6 sequence (P43351 whole entry): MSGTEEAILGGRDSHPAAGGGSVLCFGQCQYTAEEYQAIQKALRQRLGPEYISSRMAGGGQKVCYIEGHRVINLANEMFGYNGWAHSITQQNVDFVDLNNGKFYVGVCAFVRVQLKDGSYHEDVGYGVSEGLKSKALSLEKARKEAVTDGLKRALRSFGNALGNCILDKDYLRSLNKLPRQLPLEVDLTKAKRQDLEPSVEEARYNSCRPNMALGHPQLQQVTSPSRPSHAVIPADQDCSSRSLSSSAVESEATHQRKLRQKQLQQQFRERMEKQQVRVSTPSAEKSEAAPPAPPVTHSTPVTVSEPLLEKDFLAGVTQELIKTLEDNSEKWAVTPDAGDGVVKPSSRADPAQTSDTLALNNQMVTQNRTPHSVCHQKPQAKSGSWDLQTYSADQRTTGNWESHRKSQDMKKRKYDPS

[16] = Luminescence Cell-Based Dose Confirmation HTS to Identify Inhibitors of Polyadenylation.; assay type: functional
[17] = NIH3T3 cell viability loss – ATP luminescence, mouse fibroblasts, counter-screen, dose response (AID 2010); assay type: functional, cell-based;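 also: cells exposed to compound for about 90 hours before reading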
[18] = target: DNA repair and recombination protein RAD54-like (Homo sapiens, UniProt Q92698); assay: RAD54 Holliday junction migration blockers – biochemical, fluorescence, cherry-picked samples, dose series, confirmation (AID 651657); assay type: functional
Sequence of DNA repair and recombination protein RAD54-like (Q92698 whole entry): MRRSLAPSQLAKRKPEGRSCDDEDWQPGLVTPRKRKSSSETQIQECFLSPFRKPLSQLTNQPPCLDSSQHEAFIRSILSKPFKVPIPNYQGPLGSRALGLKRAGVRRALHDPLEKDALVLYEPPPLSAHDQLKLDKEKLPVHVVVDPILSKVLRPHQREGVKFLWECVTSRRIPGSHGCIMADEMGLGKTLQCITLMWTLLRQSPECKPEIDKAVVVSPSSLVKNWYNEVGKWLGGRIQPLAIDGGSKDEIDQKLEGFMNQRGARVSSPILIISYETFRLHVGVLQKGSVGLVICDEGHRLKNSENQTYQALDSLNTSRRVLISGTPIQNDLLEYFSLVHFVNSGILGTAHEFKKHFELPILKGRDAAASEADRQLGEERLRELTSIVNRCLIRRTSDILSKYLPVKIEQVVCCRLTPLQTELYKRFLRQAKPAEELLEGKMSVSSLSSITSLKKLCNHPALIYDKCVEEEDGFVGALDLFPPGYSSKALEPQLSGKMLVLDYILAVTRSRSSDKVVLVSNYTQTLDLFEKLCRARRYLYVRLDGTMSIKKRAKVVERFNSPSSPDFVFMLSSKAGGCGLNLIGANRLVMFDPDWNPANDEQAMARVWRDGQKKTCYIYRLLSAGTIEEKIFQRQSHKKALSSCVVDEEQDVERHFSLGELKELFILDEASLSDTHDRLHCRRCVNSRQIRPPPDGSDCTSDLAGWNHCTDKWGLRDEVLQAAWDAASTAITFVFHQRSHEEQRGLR

T1 sequence (Q9P0U3 whole entry, the tested form may be a part): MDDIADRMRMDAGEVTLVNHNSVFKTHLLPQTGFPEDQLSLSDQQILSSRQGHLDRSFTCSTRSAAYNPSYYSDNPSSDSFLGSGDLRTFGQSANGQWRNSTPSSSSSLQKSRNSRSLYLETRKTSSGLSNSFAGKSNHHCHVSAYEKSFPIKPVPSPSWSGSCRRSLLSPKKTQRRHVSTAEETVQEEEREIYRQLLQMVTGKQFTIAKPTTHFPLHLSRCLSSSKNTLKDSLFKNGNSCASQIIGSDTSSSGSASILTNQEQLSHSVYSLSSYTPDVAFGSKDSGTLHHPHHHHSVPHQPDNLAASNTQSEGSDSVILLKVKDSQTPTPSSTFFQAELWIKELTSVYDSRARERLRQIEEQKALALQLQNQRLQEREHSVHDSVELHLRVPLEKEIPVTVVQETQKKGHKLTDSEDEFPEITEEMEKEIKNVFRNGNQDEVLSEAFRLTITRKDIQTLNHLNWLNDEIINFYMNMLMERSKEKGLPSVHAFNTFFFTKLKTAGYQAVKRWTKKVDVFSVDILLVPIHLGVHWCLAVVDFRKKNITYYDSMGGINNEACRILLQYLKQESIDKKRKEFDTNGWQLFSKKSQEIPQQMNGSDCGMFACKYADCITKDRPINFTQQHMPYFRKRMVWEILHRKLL
Sequence of Steroidogenic factor 1 (Q13285 whole entry, the tested form may be a part): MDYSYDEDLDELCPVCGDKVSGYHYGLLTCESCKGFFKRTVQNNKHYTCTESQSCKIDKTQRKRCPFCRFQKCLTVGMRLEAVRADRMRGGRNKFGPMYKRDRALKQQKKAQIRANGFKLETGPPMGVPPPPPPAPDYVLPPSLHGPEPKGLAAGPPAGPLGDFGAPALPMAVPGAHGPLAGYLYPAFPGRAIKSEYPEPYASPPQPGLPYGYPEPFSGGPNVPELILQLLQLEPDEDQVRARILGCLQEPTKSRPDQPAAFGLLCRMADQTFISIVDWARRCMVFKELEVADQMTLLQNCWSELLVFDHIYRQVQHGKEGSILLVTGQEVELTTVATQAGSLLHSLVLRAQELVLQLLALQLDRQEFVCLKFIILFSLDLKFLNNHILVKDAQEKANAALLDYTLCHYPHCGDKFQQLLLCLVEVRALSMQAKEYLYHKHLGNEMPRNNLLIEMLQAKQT
Sequence of Hepatocyte nuclear factor 4-alpha (P41235 whole entry, the tested form may be a part): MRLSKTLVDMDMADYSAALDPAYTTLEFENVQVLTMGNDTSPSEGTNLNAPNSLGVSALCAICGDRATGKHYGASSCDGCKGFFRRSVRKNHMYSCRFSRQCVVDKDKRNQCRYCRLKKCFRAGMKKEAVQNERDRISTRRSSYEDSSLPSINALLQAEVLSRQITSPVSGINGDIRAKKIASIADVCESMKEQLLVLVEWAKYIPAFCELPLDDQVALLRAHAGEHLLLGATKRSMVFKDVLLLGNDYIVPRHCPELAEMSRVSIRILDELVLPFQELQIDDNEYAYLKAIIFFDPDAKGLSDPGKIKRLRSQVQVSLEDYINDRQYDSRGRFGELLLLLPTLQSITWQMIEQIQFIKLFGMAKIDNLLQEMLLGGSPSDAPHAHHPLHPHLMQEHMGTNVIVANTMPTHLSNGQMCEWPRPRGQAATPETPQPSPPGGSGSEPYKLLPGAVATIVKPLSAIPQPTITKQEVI
Sequence of Palmitoyl-protein thioesterase ABHD10, mitochondrial (Q6PE15 whole entry): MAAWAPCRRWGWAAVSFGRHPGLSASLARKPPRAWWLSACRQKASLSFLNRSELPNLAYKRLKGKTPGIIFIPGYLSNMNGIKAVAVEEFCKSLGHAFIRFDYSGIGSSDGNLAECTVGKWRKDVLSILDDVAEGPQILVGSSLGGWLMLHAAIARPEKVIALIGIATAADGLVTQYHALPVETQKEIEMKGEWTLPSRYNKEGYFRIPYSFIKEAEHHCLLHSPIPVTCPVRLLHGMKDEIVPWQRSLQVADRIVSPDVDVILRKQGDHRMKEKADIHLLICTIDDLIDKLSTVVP
Sequence of Nuclear receptor subfamily 5 group A member 2 (O00482 whole entry): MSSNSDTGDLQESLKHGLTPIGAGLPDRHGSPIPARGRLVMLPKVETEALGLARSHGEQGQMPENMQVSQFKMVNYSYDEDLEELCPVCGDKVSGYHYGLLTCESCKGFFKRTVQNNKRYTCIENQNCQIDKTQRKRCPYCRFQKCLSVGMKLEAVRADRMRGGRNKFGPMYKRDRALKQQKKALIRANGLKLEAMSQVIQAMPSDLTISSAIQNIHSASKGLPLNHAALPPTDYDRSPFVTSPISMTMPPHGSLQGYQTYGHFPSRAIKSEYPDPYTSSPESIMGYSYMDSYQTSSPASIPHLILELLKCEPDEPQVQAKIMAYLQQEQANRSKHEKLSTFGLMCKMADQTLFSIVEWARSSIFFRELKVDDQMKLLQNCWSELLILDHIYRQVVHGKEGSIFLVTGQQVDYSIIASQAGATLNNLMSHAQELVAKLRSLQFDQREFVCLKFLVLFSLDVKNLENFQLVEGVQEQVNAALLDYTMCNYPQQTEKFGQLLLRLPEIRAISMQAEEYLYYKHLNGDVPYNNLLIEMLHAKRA

## CC1=CC2C(C(O)CC3(C)C2CC(C)C32OCOC23COCO3)C2(C)CC(C=O)=C(O)C=C12 (configuration not stated)
[1]
  AC50: 4.34 µM (active)
[2]
  IC50: 11 µM (inactive)

## COc1ccc(OC)c(NC(=O)c2ccccc2NC(=O)c2ccco2)c1
[3]
  IC50: 35.9 µM (inactive)
[4]
  IC50: 24 µM (inactive)
Steroidogenic factor 1
  IC50: 11.4 µM (inactive)

## O=C1c2cc(CO)cc(O)c2C(=O)c2c(O[C@@H]3OC(CO)[C@@H](O)[C@@H](O)[C@@H]3O)cccc21 (some centres not stated)
[5]
  IC50: 17.4 µM (active)
[6]
  IC50: 22.1 µM (inactive)

## Cn1cnc([N+](=O)[O-])c1S(=O)(=O)Oc1ccc(Cl)cc1
[7]
  IC50: 4.09 µM (active)
[8]
  IC50: 42.8 µM (inactive)

## CCOC(=O)N1C(=O)[C@@](CC)(c2cccc(C)c2)N1C(=O)OCC
[9]
  IC50: 0.06 µM (active)

## Cc1[nH]n(-c2ccccc2)c(=O)c1/C=N\NC(=O)C1COc2ccccc2O1 (configuration not stated)
[10]
  AC50: 104 µM (active)
Protein RecA
  EC50: 17.5 µM (active)
[11]
  EC50: 1.36 µM (active)
[12]
  IC50: 8.83 µM (active)
INS1
  AC50: 5.03 µM (active)
[13]
  AC50: 40.9 µM (active)
Streptococcus
  EC50: 8.94 µM (active)

## COc1ccc(OC)c(Nc2nc(NCCO)c3ccccc3n2)c1
[14]
  EC50: 2.1 µM (active)
[15]
  AC50: 4.32 µM (active)
[16]
  EC50: > 120 µM (not active)
[17]
  EC50: > 30 µM (not active)
[18]
  AC50: 11.6 µM (active)
